Laboratory results: patent US10570157B2, “Cyclic diarylboron derivatives as NLRP3 inflammasome inhibitors” (The University of Manchester, priority 2015, dated 2020)

Experiments:
[1] = tested on: inflammasome / IL-1β release in THP1 cell line; experiment: IL-1β release from LPS-primed, nigericin-activated THP1 cells (ELISA); assay type: cell-based, human; conditions: for potency in the screen of NBC molecules (effect on IL-1β release): 10 μM compound, 15 min before nigericin (20 μM, 1 h), LPS-primed THP1 cells, normalised to nigericin-induced IL-1β release
Protocol: Data are the mean±SD of at least 4 separate experiments.
To screen the compounds of the invention, the human monocytic THP1 cell line was used. Cells were primed with LPS (1 μg/ml, 4 h) and then treated with vehicle (0.5% DMSO) or NBC molecule of the invention (see compounds listed below) at 10 μM for 15 min before activation of the inflammasome and IL-1β release with nigericin (20 μM, 1 h). The NBC molecule was present throughout nigericin stimulation. The effects of the molecules on IL-1β release were normalised to nigericin-induced IL-1β release in the absence of any inhibitor (FIGS. 1-3).

Row | SMILES | melting point | IC50 ([1]; Homo sapiens, THP-1, THP1 cells, LPS primed, nigericin stimulated, FIG. 3) [nM] | potency in the screen of NBC molecules (effect on IL-1β release) [1]
1 | CC1=[O+][B-](c2ccccc2)(c2ccccc2)NC(C(Cl)(Cl)Cl)=C1C(=O)OC(C)(C)C [compound 41, 5-(tert-Butoxycarbonyl)-2,2-di phenyl-6-methyl-4-(trichloromethyl)-2,3-dihydro-1,3,2-oxazaborinin-1-ium-2-uide] | 147 to 149 °C | – | –
2 | CC(=O)C1=C(C(Cl)(Cl)Cl)N[B-](c2ccccc2)(c2ccccc2)[O+]=C1NCc1ccc2ccc3cccc4ccc1c2c34 | 167 to 169 °C (dec.) | – | –
3 | NC(=O)C1=C(C(Cl)(Cl)Cl)N[B-](c2ccccc2)(c2ccccc2)[O+]=C1N [compound 42, 6-Amino-5-carbamoyl-2,2-diphenyl-4-(trichloromethyl)-2,3-dihydro-1,3,2-oxazaborinin-1-ium-2-uide] | – | – | most potent
4 | CC(=O)C1=C(C(Cl)(Cl)Cl)N[B-](c2ccccc2)(c2ccccc2)[O+]=C1N [compound 14, (Z)-2-Acetyl-3-amino-4,4,4-trichlorobut-2-enamide diphenylboron] | – | 500 | most potent

Now from value to molecule, other results behind:

Row | melting point | IC50 ([1]; Homo sapiens, THP-1, THP1 cells, LPS primed, nigericin stimulated, FIG. 3) [nM] | SMILES | potency in the screen of NBC molecules (effect on IL-1β release) [1]
5 | 53 to 54 °C | – | CC(=O)C1=C(C(Cl)(Cl)Cl)N[B-](c2ccccc2)(c2ccccc2)[O+]=C1NC1CCCCC1 [compound 48, 5-Acetyl-6-(cyclohexylamino)-2,2-diphenyl-4-(trichloromethyl)-2,3-dihydro-1,3,2-oxazaborinin-1-ium-2-uide] | most potent
6 | 141 to 143 °C | – | CC(=O)C1=C(C(Cl)(Cl)Cl)N[B-](c2ccccc2)(c2ccc(C)cc2)[O+]=C1N (stereo not drawn) [compound 59, 5-Acetyl-6-amino-2-(phenyl)-2-(p-tolyl)-4-(trichloromethyl)-2,3-dihydro-1,3,2-oxazaborinin-1-ium-2-uide] | –
7 | 145 to 148 °C (dec.) | – | CC(=O)C1=C(C(Cl)(Cl)Cl)N[B-](c2ccc(C)cc2)(c2ccc(C)cc2)[O+]=C1N [compound 57, 5-Acetyl-6-amino-2,2-bis(p-tolyl)-4-(trichloromethyl)-2,3-dihydro-1,3,2-oxazaborinin-1-ium-2-uide] | –
